We go through five compounds from EPA's ToxValDB 9.5 (doi:10.2903/j.efsa.2009.299r).

For orientation: NOAEL means the highest dose or exposure tested at which no adverse effect was seen.

For data set [1], the system named is Rattus norvegicus. The conditions noted are these: for LD50: acute, mortality.
Data set [2] concerns Apis mellifera. The conditions noted are these: acute, mortality.
The subject of data set [3] is Bibionidae. The conditions noted are these: chronic/long-term; duration: 28 days; other.
For data set [4], the system named is Colinus virginianus. The conditions noted are these: for LC50: diet.
For data set [5], the system named is Daphnia magna.
In data set [6] the test system is Folsomia candida. The conditions noted are these: chronic/long-term; duration: 28 days.
In data set [7] the test system is Mus musculus. The conditions noted are these: chronic; duration: 78 weeks; oral; diet; histopathology: neoplastic.
The subject of data set [8] is Oncorhynchus mykiss. The conditions noted are these: acute; duration: 96 hours; mortality.
Data set [9] deals with Oryctolagus sp.
In data set [10] the test system is Pimephales promelas. The conditions noted are these: chronic/long-term; duration: 33 days; growth.
For data set [11], the system named is Tagia sp.
Data set [12] relates to Canidae. The conditions noted are these: chronic; duration: 2 years; oral; Dog Other; body weight.

Structures are written as SMILES. ≈ marks a conversion by molar mass, not a printed value.

`O=C(O)c1ncc(C(F)(F)F)cc1Cl` [3-Chloro-5-(trifluoromethyl)pyridine-2-carboxylic acid] gave an LD50 in data set [1] (oral) of 5000 mg/kg-day.

In the case of `O=C(NCc1ncc(C(F)(F)F)cc1Cl)c1c(Cl)cccc1Cl` [Fluopicolide], the LD50 was more than 100 µg/piece in [2] (dermal); more than 241 µg/piece in [2] (oral, unspecified); more than 2250 mg/kg-day in [4] (acute, oral, mortality); more than 5000 mg/kg-day in data set [1] (oral). Also, the NOEC in data set [3] came out at 49 mg/kg; in [4] (reproduction developmental) it was 88.9 mg/kg-day; in [5] (chronic/long-term, duration: 21 days, reproduction), 0.37 mg/L; in data set [6] it was 31.2 mg/kg; in data set [10] it was 0.155 mg/L; in data set [11] (chronic/long-term, duration: 28 days, growth) it was 62.5 mg/kg. The LC50 was more than 1740 mg/kg-day in data set [4] (acute, oral, mortality); more than 1.8 µg/mL in [5] (acute, duration: 48 hours, mortality); 0.36 µg/mL (≈ 0.939 µM) in data set [8]; more than 500 mg/kg in data set [11] (acute, duration: 14 days, mortality). The no observed adverse effect level (NOAEL) in data set [7] came to 7.9 mg/kg-day; in data set [9] (developmental, development) it was 20 mg/kg-day; in [1] (chronic, duration: 2 years, histopathology: nonneoplastic) it was 8.4 mg/kg-day; in data set [1] (short-term, duration: 28 days, oral, body weight), 17.7 mg/kg-day; in [1] (subchronic, duration: 90 days, oral, organ weight) it was 7.4 mg/kg-day. The compound further displayed an NOEL in data set [9] (developmental, development) of 20 mg/kg-day.

As for `O=C(O)c1ncc(C(F)(F)F)cc1S(=O)(=O)O` [3-Sulfo-5-trifluoromethyl pyridine-2-carboxylic acid], the LD50 in data set [1] (oral) is more than 5000 mg/kg-day.

In data set [1] (oral), `CS(=O)c1cc(C(F)(F)F)cnc1C(=O)O` (centres undefined) came in with an LD50 of more than 5000 mg/kg-day.

As for `NC(=O)c1c(Cl)cccc1Cl` [2,6-Dichlorobenzamide], the NOAEL in data set [12] amounted to 4.5 mg/kg-day; in data set [9] (reproduction developmental, body weight), 30 mg/kg-day; in [1] (chronic, duration: 2 years, oral, histopathology: nonneoplastic), 5.7 mg/kg-day. Further, in data set [4] (acute, oral, mortality), the LC50 is 1170 mg/kg-day. Also, the LD50 is 500 mg/kg-day in data set [1] (oral, F) and 2000 mg/kg-day in data set [1] (oral, M).
